Laboratory results: publication PMC3361975 (Biochemistry, 2012)
Read-outs that look alike come from different tables or passages of the source.

Tested on: PTDH ortholog from Nostoc sp. 7120
Assay: initial rate of NADH formation at […] nm, Michaelis-Menten fit
Format: biochemical, Nostoc sp. PCC 7120
Details: read-out: Nostoc sp. 7120, 100 mM MOPS pH 7.25, 30 °C

NC(=O)c1ccc[n+]([C@@H]2O[C@H](COP(=O)(O)OP(=O)(O)OC[C@H]3O[C@@H](n4cnc5c(N)ncnc54)[C@H](O)[C@@H]3O)[C@@H](O)[C@H]2O)c1 [NAD^+]
Km (co-substrate phosphite): 10.3 µM

O=[PH](O)O [phosphite]
Km (co-substrate NAD+): 20.2 µM
